A word on the inhibition: it is how much of the control response was suppressed. In general, pIC50 refers to the negative decadic logarithm of the IC50, by convention in mol/L.

Consider nine compounds from patent US7592457B2 (Korea Research Institute of Chemical Technology, priority 2004, dated 2009).

Test [1] concerns the target T1, 5-HT7 (Homo sapiens, UniProt P34969).
T1 construct: purchased Euroscreen/BioSignal Packard Inc
The experiment in a line: Radioligand binding, 5-HT7 ([3H]LSD). The note with it: read-out: Binding affinity (Inhibition rate % at 10 μM) 5HT7. Here is the method:
(§1) Radioligand bindings were performed according to the test method provided by the supplier of receptor membrane (Euroscreen/BioSignal Packard Inc.).

In test [2] the target is T2, 5-HT2c (Homo sapiens, UniProt P28335).
T2 construct: purchased Euroscreen/BioSignal Packard Inc
T2 sequence (P28335 33-458): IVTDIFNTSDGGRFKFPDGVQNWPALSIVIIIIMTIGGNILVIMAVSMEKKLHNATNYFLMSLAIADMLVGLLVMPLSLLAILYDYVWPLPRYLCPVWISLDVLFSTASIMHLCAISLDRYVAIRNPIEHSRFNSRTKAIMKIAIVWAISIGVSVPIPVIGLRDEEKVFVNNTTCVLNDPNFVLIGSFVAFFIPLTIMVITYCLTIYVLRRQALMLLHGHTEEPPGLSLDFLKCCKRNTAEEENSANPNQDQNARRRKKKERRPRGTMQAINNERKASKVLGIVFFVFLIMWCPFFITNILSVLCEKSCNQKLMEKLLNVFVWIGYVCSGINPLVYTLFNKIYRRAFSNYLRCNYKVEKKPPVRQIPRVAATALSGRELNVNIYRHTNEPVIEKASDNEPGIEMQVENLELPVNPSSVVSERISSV
Put plainly: Radioligand binding, 5-HT2c ([3H]Mesulergine). The settings on record: read-out: Binding affinity (Inhibition rate % at 10 μM) 5HT2c. Here is the method: as §1

The target in test [3] is D1 (Homo sapiens, UniProt P21728). The experiment in a line: Radioligand binding for selectivity, D1. The settings on record: read-out: Binding affinity (Inhibition rate % at 10 μM) D1.
Chain of D1 (P21728 whole entry): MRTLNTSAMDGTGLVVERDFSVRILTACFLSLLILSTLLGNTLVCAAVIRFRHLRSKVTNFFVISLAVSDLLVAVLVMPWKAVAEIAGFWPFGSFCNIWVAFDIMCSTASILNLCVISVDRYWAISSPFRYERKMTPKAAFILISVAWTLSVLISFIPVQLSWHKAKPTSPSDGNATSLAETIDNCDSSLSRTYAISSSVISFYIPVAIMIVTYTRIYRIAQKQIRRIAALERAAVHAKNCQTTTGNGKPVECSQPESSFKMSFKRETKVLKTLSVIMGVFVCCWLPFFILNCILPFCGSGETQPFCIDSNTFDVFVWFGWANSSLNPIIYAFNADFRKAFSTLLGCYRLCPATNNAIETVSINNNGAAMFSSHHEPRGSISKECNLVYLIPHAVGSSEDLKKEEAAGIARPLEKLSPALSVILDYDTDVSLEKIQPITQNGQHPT
Test [4] addresses T3, 5-HT2a (Homo sapiens, UniProt P28223).
T3 construct: purchased Euroscreen/BioSignal Packard Inc
Put plainly: Radioligand binding, 5-HT2a ([3H]Ketanserin). The settings on record: read-out: Binding affinity (Inhibition rate % at 10 μM) 5HT2a. Here is the method: as §1

In test [5] the target is T4, hD3 receptor (Homo sapiens, UniProt P35462).
T4 construct: purchased BioSignal Packard Inc., Montreal, Canada
T4 sequence (P35462 whole entry): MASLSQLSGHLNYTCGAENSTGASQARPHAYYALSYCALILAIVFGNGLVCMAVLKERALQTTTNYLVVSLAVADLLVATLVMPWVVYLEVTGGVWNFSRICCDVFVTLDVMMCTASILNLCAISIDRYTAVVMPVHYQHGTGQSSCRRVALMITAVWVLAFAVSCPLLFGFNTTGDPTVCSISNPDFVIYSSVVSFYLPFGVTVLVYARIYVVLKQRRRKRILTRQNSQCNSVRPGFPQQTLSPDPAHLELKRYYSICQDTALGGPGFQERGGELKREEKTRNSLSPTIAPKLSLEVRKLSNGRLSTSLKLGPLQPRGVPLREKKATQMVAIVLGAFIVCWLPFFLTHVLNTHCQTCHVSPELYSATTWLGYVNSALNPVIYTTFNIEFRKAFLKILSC
The experiment in a line: Radioligand binding, dopamine D3 ([3H]spiperone). The note with it: read-out: Binding affinity (Inhibition rate % at 10 μM) D3. Here is the method: (§2) The radioligands used were [^3H] spiperone (for hD2L and hD3 receptors, 1 nM) and [^3H] YM-09151-2 (for hD4.2 receptor, 0.06 nM). Radioligand bindings were performed by the protocols provided by the supplier of receptor membranes (BioSignal Packard Inc., Montreal, Canada). Briefly, the buffer used in D2 or D3 receptor binding assay was 50 mM Tris-HCl (pH 7.4), 10 mM MgCl2, 1 mM EDTA, or 50 mM Tris-HCl (pH 7.4), 5 mM MgCl2, 5 mM EDTA, 5 mM KCl, 1.5 mM CaCl2, 120 mM NaCl, respectively. In [^3H] YM-09151-2 receptor binding assays, the buffer containing 50 mM Tris-HCl (pH 7.4), 5 mM MgCl2, 5 mM EDTA, 5 mM KCl and 1.5 mM CaCl2 was used. Nonspecific binding was determined with haloperidol (10 μM) or clozapine (10 μM) for D2 and D3, and D4 receptors, respectively. Competition binding studies were carried out with 7-8 concentrations of the test compound run in duplicate tubes, and isotherms from three assays were calculated by computerized nonlinear regression analysis (GraphPad Prism Program, San Diego, […]) to yield median inhibitory concentration (IC50) values.

Test [6] addresses T5, human serotonin 5-HT6 receptor (Homo sapiens, UniProt P50406).
T5 construct: made in house; host or cells: Sf21 insect cells (pBacPAK8 baculovirus vector)
The experiment in a line: [3H]LSD binding at cloned 5-HT6 receptors. The note with it: for pIC50: [3H]LSD 1.87 nM, cloned receptor membranes, 37° C., 60 min, read-out: IC50; for inhibition at 10 µM: read-out: Binding affinity (Inhibition rate % at 10 μM) 5HT6.

Test [7] has as its target T6, hD4.2 receptor (Homo sapiens, UniProt P21917, DEL265-296).
T6 construct: purchased BioSignal Packard Inc., Montreal, Canada
T6 sequence (P21917 with tags, fused parts or gaps DEL265-296): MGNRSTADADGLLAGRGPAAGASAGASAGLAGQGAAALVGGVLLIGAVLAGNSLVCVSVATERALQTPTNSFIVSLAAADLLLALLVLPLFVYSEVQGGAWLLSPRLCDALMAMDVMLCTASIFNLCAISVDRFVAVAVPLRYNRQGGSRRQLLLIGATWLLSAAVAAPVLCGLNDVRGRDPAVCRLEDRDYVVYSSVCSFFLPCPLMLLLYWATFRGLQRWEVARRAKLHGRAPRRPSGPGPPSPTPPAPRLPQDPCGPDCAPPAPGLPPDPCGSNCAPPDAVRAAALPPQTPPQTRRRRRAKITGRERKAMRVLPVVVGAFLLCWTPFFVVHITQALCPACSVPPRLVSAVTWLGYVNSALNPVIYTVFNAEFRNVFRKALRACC
Put plainly: Radioligand binding, dopamine D4 ([3H]YM-09151-2). The settings on record: read-out: Binding affinity (Inhibition rate % at 10 μM) D4. Here is the method:
as §2

The target in test [8] is T7, hD2L receptor (Homo sapiens, UniProt P14416).
T7 construct: purchased BioSignal Packard Inc., Montreal, Canada
T7 sequence (P14416 whole entry): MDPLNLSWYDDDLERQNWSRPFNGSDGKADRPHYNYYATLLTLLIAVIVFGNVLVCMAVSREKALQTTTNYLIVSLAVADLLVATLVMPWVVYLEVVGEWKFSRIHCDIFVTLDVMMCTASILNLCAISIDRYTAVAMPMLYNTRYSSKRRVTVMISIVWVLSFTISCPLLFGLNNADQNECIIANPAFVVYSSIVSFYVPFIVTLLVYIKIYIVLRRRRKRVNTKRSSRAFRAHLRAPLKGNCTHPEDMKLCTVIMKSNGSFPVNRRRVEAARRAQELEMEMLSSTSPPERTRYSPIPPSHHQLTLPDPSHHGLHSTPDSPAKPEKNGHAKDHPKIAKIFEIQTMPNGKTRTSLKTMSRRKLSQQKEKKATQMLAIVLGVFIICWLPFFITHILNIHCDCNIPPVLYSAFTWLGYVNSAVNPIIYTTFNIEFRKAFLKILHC
The experiment in a line: Radioligand binding, dopamine D2 ([3H]spiperone). The note with it: read-out: Binding affinity (Inhibition rate % at 10 μM) D2. Here is the method:
as §2

The target of test [9] is T8, 5-HT1a (Homo sapiens, UniProt P08908).
T8 construct: purchased Euroscreen/BioSignal Packard Inc
T8 sequence (P08908 1-422): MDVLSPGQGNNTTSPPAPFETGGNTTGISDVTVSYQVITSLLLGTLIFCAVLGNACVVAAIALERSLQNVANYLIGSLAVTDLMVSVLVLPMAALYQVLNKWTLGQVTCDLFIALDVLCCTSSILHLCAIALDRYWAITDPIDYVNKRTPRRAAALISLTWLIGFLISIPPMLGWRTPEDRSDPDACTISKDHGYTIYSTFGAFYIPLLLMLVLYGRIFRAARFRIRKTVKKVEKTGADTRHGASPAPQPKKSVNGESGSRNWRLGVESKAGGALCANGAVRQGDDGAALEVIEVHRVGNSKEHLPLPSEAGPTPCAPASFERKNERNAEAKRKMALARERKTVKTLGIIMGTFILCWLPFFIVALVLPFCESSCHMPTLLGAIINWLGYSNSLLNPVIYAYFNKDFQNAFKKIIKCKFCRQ
The experiment in a line: Radioligand binding, 5-HT1a ([3H]8-OH-DPAT). The settings on record: read-out: Binding affinity (Inhibition rate % at 10 μM) 5HT1a. Here is the method: as §1

pIC50: −log10 of the molar value.

T1 sequence (P34969 whole entry): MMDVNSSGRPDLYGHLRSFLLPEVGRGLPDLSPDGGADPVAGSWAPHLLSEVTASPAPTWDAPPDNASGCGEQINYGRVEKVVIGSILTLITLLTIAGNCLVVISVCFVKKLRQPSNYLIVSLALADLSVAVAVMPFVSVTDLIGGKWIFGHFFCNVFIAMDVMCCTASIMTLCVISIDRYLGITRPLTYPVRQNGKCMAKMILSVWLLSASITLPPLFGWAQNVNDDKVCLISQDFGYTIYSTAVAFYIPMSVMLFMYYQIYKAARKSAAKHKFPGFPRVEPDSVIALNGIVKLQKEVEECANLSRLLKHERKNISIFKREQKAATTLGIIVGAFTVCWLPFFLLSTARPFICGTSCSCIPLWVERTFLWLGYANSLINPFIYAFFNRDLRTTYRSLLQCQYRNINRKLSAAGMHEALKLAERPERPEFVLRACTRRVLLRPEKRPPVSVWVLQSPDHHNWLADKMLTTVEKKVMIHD
T3 sequence (P28223 whole entry): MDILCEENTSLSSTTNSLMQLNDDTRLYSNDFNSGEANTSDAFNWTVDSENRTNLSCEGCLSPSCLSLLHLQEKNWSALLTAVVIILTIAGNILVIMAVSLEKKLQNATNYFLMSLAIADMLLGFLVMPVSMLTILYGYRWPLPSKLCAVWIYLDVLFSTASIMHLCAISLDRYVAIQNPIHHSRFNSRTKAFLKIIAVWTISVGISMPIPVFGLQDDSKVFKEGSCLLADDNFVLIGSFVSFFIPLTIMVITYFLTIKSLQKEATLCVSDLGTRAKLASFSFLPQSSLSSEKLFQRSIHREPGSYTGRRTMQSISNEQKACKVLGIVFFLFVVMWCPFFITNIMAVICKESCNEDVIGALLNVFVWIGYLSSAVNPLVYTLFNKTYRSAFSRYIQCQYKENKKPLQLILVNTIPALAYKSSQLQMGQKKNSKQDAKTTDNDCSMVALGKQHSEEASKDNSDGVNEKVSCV
T5 sequence (P50406 whole entry): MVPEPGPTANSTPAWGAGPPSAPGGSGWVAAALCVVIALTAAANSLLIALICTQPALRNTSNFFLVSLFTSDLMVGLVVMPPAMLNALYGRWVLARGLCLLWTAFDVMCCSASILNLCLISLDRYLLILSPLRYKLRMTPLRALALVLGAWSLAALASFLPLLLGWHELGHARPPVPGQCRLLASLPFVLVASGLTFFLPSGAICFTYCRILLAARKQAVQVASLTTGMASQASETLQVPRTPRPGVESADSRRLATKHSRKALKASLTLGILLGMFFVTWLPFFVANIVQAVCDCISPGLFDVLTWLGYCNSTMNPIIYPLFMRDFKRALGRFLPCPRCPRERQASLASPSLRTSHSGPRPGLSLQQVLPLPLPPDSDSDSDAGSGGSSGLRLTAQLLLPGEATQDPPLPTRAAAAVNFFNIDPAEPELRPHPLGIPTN

On to `CC1(c2ccc(N)cc2)C(=O)Nc2cc(Cl)cc(Cl)c2C1=O` (stereo not drawn) [Example 15, 3-(4-amino-phenyl)-5,7-dichloro-3-methyl-1H-quinoline-2,4-dione], for which the inhibition at 10 µM in test [1] came out at 11.1%; in [2] it was 15.6%; in [3] it was 4.8%; in [4], 16.9%; in [5] it was 5.8%; in [6] it was 73%. For the same compound, the values for the inhibition at 10 µM in [7], in [8] and in [9] were 4.5%, 0% and 52.3%, respectively. In test [6], the negative-log IC50 (pIC50) was 6.60.

With `CC1(c2ccc(O)c(N)c2)C(=O)Nc2c(Br)cc(Br)cc2C1=O` (stereo not drawn) [Example 30, 3-(3-amino-4-hydroxy-phenyl)-6,8-dibromo-3-methyl-1H-quinoline-2,4-dione], the inhibition at 10 µM is 4.9% in test [1]; 5.4% in [2]; 18.6% in test [3]; 35.1% in test [4]; 25.1% in test [5]; 69.2% in test [6]. In addition, the inhibition at 10 µM in test [7] is 0.9%; in test [8], 18.5%; in test [9], 0%. In addition, in test [6], the pIC50 was 5.76.

Turning to `CC1(c2ccc(Br)cc2Br)C(=O)Nc2cc(Cl)cc(Cl)c2C1=O` (stereo not drawn) [Example 27, 3-(2,4-dibromo-phenyl)-5,7-dichloro-3-methyl-1H-quinoline-2,4-dione], the inhibition at 10 µM is 12.3% in test [1]; 28.1% in [2]; 25.8% in test [3]; 30.8% in [4]; 15.6% in test [5]; 71.1% in [6]. Besides, the inhibition at 10 µM worked out at 1.6% in [7], 10.2% in test [8] and 46% in test [9]. In test [6], the pIC50 was 6.46.

Turning to `CN1CCN(c2cc(Cl)c3c(c2)NC(=O)C(C)(c2ccc([N+](=O)[O-])cc2)C3=O)CC1` (stereo not drawn) [Example 49, 5-chloro-3-methyl-7-(4-methyl-piperazine-1-yl)-3-(4-nitro-phenyl)-1H-quinoline-2,4-dione], the inhibition at 10 µM in [1] came to 24.4%; in test [2], 19.8%; in [3], 26%; in test [4], 33.4%; in [5] it was 12.4%; in test [6], 70.2%. The results for the inhibition at 10 µM in test [7], in test [8] and in test [9] were 0%, 10.5% and 1.4%, respectively. In [6], the negative-log IC50 (pIC50) is 5.99.

Take `COc1ccc(C2(C)C(=O)Nc3c(Br)cc(Br)cc3C2=O)cc1[N+](=O)[O-]` (stereo not drawn) [Example 28, 6,8-dibromo-3-(4-methoxy-3-nitro-phenyl)-3-methyl-1H-quinoline-2,4-dione]: the inhibition at 10 µM in test [1] amounted to 10.2%; in test [2], 13.7%; in [3] it was 46.9%; in test [4], 9%; in test [5], 40.9%; in test [6], 73.2%. Also, the inhibition at 10 µM in test [7] worked out at 2.3%; in test [8], 9.4%; in [9], 60.9%. Further, in test [6], the pIC50 was 5.92.

As for `COc1ccc(C2(C)C(=O)Nc3ccccc3C2=O)cc1` (stereo not drawn) [Example 33, 3-(4-methoxy-phenyl)-3-methyl-1H-quinoline-2,4-dione], the inhibition at 10 µM in test [1] turned out to be 6.6%; in test [2], 13.5%; in test [3], 29.5%; in test [4], 10.7%; in test [5], 13.1%; in test [6], 72.4%. Also, the results for the inhibition at 10 µM in test [7], in test [8] and in test [9] were 0%, 20.9% and 20.4%, respectively. Further, the pIC50 in [6] is 6.31.

For the compound `C[C@H](NC(=O)Nc1cccc([C@@]2(C)C(=O)Nc3cc(Cl)cc(Cl)c3C2=O)c1)c1ccccc1` [Example 43, 1-(R)-[3-(5,7-dichloro-3-methyl-2,4-dioxo-1,2,3,4-tetrahydro-quinoline-3-yl) -phenyl]-3-(1-(S) -phenyl-ethyl) -urea], the inhibition at 10 µM in test [1] was found to be 5%; in test [2] it was 0%; in [3], 30.1%; in test [4], 21.3%; in [5], 24%; in test [6], 70.6%. Also, the inhibition at 10 µM in test [7] was determined as 6.1%; in test [8] it was 5.7%; in test [9] it was 18%. In addition, in test [6], the pIC50 was 5.95.

As for `CC1(c2ccc(O)cc2)C(=O)Nc2ccccc2C1=O` (stereo not drawn) [Example 34, 3-(4-hydroxy-phenyl)-3-methyl-1H-quinoline-2,4-dione], the inhibition at 10 µM in test [1] is 0.9%; in test [2], 20.1%; in test [3] it was 15.8%; in test [4], 13.5%; in test [5], 25.4%; in test [6], 70.8%. Further, the inhibition at 10 µM in [7] amounted to 0%; in [8], 17.3%; in test [9], 19.8%. Further, the pIC50 in test [6] is 5.90.

Regarding `CN1CCN(c2cc(Cl)c3c(c2)NC(=O)C(C)(c2ccc(O)cc2)C3=O)CC1` (stereo not drawn) [Example 47, 5-chloro-3-(4-hydroxy-phenyl)-3-methyl-7-(4-methyl-piperazine-1-yl)-1H-quinoline-2,4-dione], the inhibition at 10 µM in test [1] is 16.3%; in test [2] it was 12.4%; in test [3], 20.9%; in test [4], 42.8%; in test [5], 14.2%; in test [6] it was 71.9%. The inhibition at 10 µM in [7] is 12.8%; in [8] it was 27.2%; in test [9], 27.1%. Besides, in test [6], the pIC50 was 5.97.
